Laboratory results: US4824669A, “Formulations of coenzyme Q10 for intravenous use” (Board of Regents, The University of Texas System, priority 1987, dated 1989)
Where two headings read alike, the source gives them in different places.

Tests used:
[1] = oral, cited from earlier work; for absorption (in words): human subjects
[2] = soybean oil in soft gelatin capsules; cited from earlier work
[3] = clinical use; cited from earlier work
[4] = visible separation / stability of CoQ10 in commercial fat emulsions; format: physicochemical
Protocol: A preferred technique of preparing formulations of the present invention involved adding 1 ml of a fat emulsion such as Intralipid, Liposyn, Soyacal, and Travemulsion to each of three tubes. With a microsyringe, 1 μl of soybean oil containing 30 μg, 15 μg and 7.5 μg of CoQ10, respectively, was added to each of the three tubes containing 1 ml the fat emulsion. The microliter of soybean oil containing these three amounts of CoQ10 was easily visible by the yellow color on the surface of the fat emulsion. The contents of these tubes were cooled to less than about 5° C. and were then sonicated for about 5 seconds in an ice bath. The sonicated CoQ10 -fat emulsion was then drawn into a first syringe through the syringe needle. The needle of the first syringe was then connected to the needle of a second syringe. The CoQ10 -fat emulsion was then passed back and forth through the needles from the first syringe to the second syringe, and this mixing was repeated about 10 times. The needles of the two syringes were connected through a rubber stopper or a tubing, which sufficed for this laboratory scale preparation.

[5] = blood CoQ10 levels expected after intravenous administration of CoQ10-fat emulsions; format: in vivo, human; conditions: i.v., control 5 mg
Protocol: The intravenous formulations of the present invention may be used, for example, to introduce 15 mg, 10 mg and 5 mg of CoQ10 into the total body blood volume by intravenous administration of about 500 ml containing 30 μg/ml, 15 μg/ml and 7.5 μg/ml, respectively, of CoQ10. On the basis that the control blood level of CoQ10 /total body volume is 5 mg, then the total body volume would contain 20 mg, 15 mg, and 10 mg, respectively, after the intravenous administration of the three formulations.
These three particular exemplary formulations of the present invention will allow the introduction of CoQ10 into the blood of patients to levels of 2, 3 and 4 μg/ml, respectively, for a total amount of CoQ10 /total body volume of blood of, for example, about 10, 15 and 20 mg, respectively.

[6] = blood levels on daily oral administration of CoQ10 capsules to patients; format: in vivo, human; conditions: if a blood level of 3 μg/ml of whole blood is achieved on oral therapy
Protocol: It is known from the existing clinical data from the daily oral administration of 100 mg of CoQ10 to patients (3 capsules of 33.3 mg each in soybean oil), that blood levels in the range of about 2-4 μg/ml whole blood may be achieved. These blood levels on daily oral administration of 3 capsules vary between about 1.5 and 4 μg/ml whole blood, depending upon the initial control level, the variation of oral absorption, patient compliance, etc. If a blood level of 3 μg/ml of whole blood is achieved on therapy, the amount of CoQ10 in the total blood volume would be about 15 mg. The gastrointestinal absorption of CoQ10 from 3 capsules/day is about 15% or 15-20% according to Lucker et al. (citation under Background of the Invention). However, as mentioned earlier herein, oral administration of CoQ10 is undependable and sometimes difficult.

[7] = solid particle dispersions in aqueous medium; cited from earlier work
[8] = 100 mg daily (3 capsules of 33.3 mg in soybean oil), patients; cited from earlier work
[9] = oral, coronary artery by-pass graft surgery; Sunamori et al.; cited from earlier work

For `COC1=C(OC)C(=O)C(C/C=C(\C)CC/C=C(\C)CC/C=C(\C)CC/C=C(\C)CC/C=C(\C)CC/C=C(\C)CC/C=C(\C)CC/C=C(\C)CC/C=C(\C)CCC=C(C)C)=C(C)C1=O` [CoQ10, 2,3-dimethoxy-5-methyl-6-decaprenyl benzoquinone], the “absorption (in words)” value [1] is listed as “very slow absorption”, the “absorption (in words)” value ([1]; listed as coenzyme Q10) is listed as “slow and inefficient” and the “overall absorption of orally administered CoQ10” value ([1]; human, Lucker et al.) is listed as 10-20%. For the same compound, the “orally administered dose recovered from the feces” value ([1]; study period of 10 days) was at most 62%, the “stability in encapsulated soybean oil” value [2] was “up to 6 years” and the clinical safety record [3] was “clinical record of safety of over a decade”. For the same compound, the “separation of CoQ10 from the emulsion” value ([4]; 30, 15 and 7.5 μg/ml of commercial fat emulsion, sonicated and passed through syringe needles) was “did not visibly separate to the surface”, the “stability of emulsions at high CoQ10 level” value ([4]; CoQ10 levels above about 30 μg/ml) was “tend to be unstable” and the “stability of simple combination with commercial fat emulsion” value ([4]; simple combination of CoQ10 with one of the commercial fat emulsions) was “unstable formulations from which the CoQ10 would too readily separate”. For the same compound, the “CoQ10 in total body blood volume after intravenous administration” value ([5]; about 500 ml containing 7.5 μg/ml) was 10 mg, the “CoQ10 in total body blood volume after intravenous administration” value ([5]; about 500 ml containing 30 μg/ml) was 20 mg and the “amount of CoQ10 in the total blood volume” value [6] was “about 15 mg”. The settling on standing [7] was “particles containing CoQ10 fall to the bottom of the container”, the “blood levels on daily oral administration” value [8] was 2-4 μg/ml whole blood and the “tissue concentrations of CoQ10 (in words)” value [9] was “failed to allow satisfactory tissue concentrations of CoQ10”.
